Assay results taken from US20110143948A1, “MOLECULAR SIGNATURES AND BIOMARKERS ASSOCIATED WITH MELANOMA AND METHODS OF USE THEREOF” (priority 2008, published 2011).

Tested on: ncRNAs (SEQ ID NO 28-89)
Test: ncRNA arrays of melanocytes, keratinocytes, normal skin, melanoma cell lines and patient samples
Design: species or system human
Conditions: for ncRNA array expression, patient 2: melanoma patient 2 sample compared to normal skin; for ncRNA array expression, patient 3: melanoma patient 3 sample compared to normal skin; for ncRNA array expression, patient 4: melanoma patient 4 sample compared to normal skin; for ncRNA array expression, patient 5: melanoma patient 5 sample compared to normal skin; for ncRNA array expression, patient 6: melanoma patient 6 sample compared to normal skin; for ncRNA array expression, patient 7: melanoma patient 7 sample compared to normal skin; for ncRNA array expression, patient 8: melanoma patient 8 sample compared to normal skin; for ncRNA array expression, patient 9: melanoma patient 9 sample compared to normal skin; for ncRNA array expression, patient 10: melanoma patient 10 sample compared to normal skin; for ncRNA array expression, patient 19: melanoma patient 19 sample compared to normal skin; for ncRNA array expression, patient 20: melanoma patient 20 sample compared to normal skin; for ncRNA array expression, patient 21: melanoma patient 21 sample compared to normal skin; for ncRNA array expression, patient 22: melanoma patient 22 sample compared to normal skin; for ncRNA array expression, patient 23: melanoma patient 23 sample compared to normal skin; for ncRNA array expression, patient 24: melanoma patient 24 sample compared to normal skin; for ncRNA array expression, patient 25: melanoma patient 25 sample compared to normal skin; for ncRNA array expression, patient 26: melanoma patient 26 sample compared to normal skin; for ncRNA array expression, patient 27: melanoma patient 27 sample compared to normal skin; for ncRNA array expression, patient 28: melanoma patient 28 sample compared to normal skin; for ncRNA array expression, patient 29: melanoma patient 29 sample compared to normal skin; for ncRNA array expression, patient 30: melanoma patient 30 sample compared to normal skin
Method in brief: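 Differential ncRNA expression was defined against melanocytes or normal skin after subtracting keratinocyte-specific signals, with confirmation by qRT-PCR and Northern blot. Samples were melanoma cell lines, patient tumours, melanocytes, keratinocytes and normal skin, hybridised to a >10,000-probe (>200 nt) ncRNA array that also carries RefSeq mRNA probes.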

SEQ ID NO 72 (AATTACATATATTTAGCAGGATTTTTATTTGCCGTGATATATAGGATAATTTAGTCTTTG; listed as DNA, chemistry not given here; listed as Homo sapiens)
ncRNA array expression, patient 2: 2.217 | ncRNA array expression, patient 3: 2.382 | ncRNA array expression, patient 4: 2.566 | ncRNA array expression, patient 5: 1.096 | ncRNA array expression, patient 6: 2.336 | ncRNA array expression, patient 7: 2.665 | ncRNA array expression, patient 8: 3.323 | ncRNA array expression, patient 9: −0.6629 | ncRNA array expression, patient 10: 2.245 | ncRNA array expression, patient 19: 0.2985 | ncRNA array expression, patient 20: 1.011 | ncRNA array expression, patient 21: 0.6264 | ncRNA array expression, patient 22: 0.5499 | ncRNA array expression, patient 23: 0.09129 | ncRNA array expression, patient 24: 2.832 | ncRNA array expression, patient 25: 3.664 | ncRNA array expression, patient 26: 3.29 | ncRNA array expression, patient 27: 2.308 | ncRNA array expression, patient 28: 1.044 | ncRNA array expression, patient 29: 2.583 | ncRNA array expression, patient 30: −1.3285

SEQ ID NO 73 (AAAGTTTCCCCATAATGCTCTTGCAAGTGAATATGAGCTGTGGTTTTTGCAGTGGAGTTA; listed as DNA, chemistry not given here; listed as Homo sapiens)
ncRNA array expression, patient 2: −0.1172 | ncRNA array expression, patient 3: 1.314 | ncRNA array expression, patient 4: 2.477 | ncRNA array expression, patient 5: −0.06181 | ncRNA array expression, patient 6: 1.506 | ncRNA array expression, patient 7: −0.179 | ncRNA array expression, patient 8: 1.518 | ncRNA array expression, patient 9: 1.007 | ncRNA array expression, patient 10: 1.767 | ncRNA array expression, patient 19: 3.505 | ncRNA array expression, patient 20: 0.6301 | ncRNA array expression, patient 21: 2.332 | ncRNA array expression, patient 22: 0.9622 | ncRNA array expression, patient 23: 0.07892 | ncRNA array expression, patient 24: 0.3377 | ncRNA array expression, patient 25: 1.57 | ncRNA array expression, patient 26: 1.308 | ncRNA array expression, patient 27: 0.1447 | ncRNA array expression, patient 28: 2.166 | ncRNA array expression, patient 29: 0.9153 | ncRNA array expression, patient 30: −0.2612

SEQ ID NO 74 (TATATTACAGGAGTTGTCTATACGATTATAGTACCTGATTCTTTGGACATATCATTGAAC; listed as DNA, chemistry not given here; listed as Homo sapiens)
ncRNA array expression, patient 2: 2.155 | ncRNA array expression, patient 3: 1.879 | ncRNA array expression, patient 4: 2.326 | ncRNA array expression, patient 5: 0.3239 | ncRNA array expression, patient 6: 0.8281 | ncRNA array expression, patient 7: 2.016 | ncRNA array expression, patient 8: 1.309 | ncRNA array expression, patient 9: 0.6157 | ncRNA array expression, patient 10: 2.172 | ncRNA array expression, patient 19: −0.2091 | ncRNA array expression, patient 20: 0.8773 | ncRNA array expression, patient 21: 1.569 | ncRNA array expression, patient 22: 0.2398 | ncRNA array expression, patient 23: 1.776 | ncRNA array expression, patient 24: 0.8669 | ncRNA array expression, patient 25: 2.599 | ncRNA array expression, patient 26: 2.626 | ncRNA array expression, patient 27: 0.4062 | ncRNA array expression, patient 28: 2.421 | ncRNA array expression, patient 29: 1.974 | ncRNA array expression, patient 30: −1.075

SEQ ID NO 75 (CAAGTGGGAAGAAAAAGAGCCCTACGTGGTGACATTCTGGAAGGATATCATGGATGATTG; listed as DNA, chemistry not given here; listed as Homo sapiens)
ncRNA array expression, patient 2: 0.5875 | ncRNA array expression, patient 3: 0.2177 | ncRNA array expression, patient 4: 1.062 | ncRNA array expression, patient 5: 1.072 | ncRNA array expression, patient 6: 1.853 | ncRNA array expression, patient 7: 2.114 | ncRNA array expression, patient 8: 2.605 | ncRNA array expression, patient 9: 1.117 | ncRNA array expression, patient 10: 0.6968 | ncRNA array expression, patient 19: 1.219 | ncRNA array expression, patient 20: 2.945 | ncRNA array expression, patient 21: 1.592 | ncRNA array expression, patient 22: 1.681 | ncRNA array expression, patient 23: 1.545 | ncRNA array expression, patient 24: 2.209 | ncRNA array expression, patient 25: −0.3024 | ncRNA array expression, patient 26: 0.226 | ncRNA array expression, patient 27: 3.291 | ncRNA array expression, patient 28: 1.546 | ncRNA array expression, patient 29: 2.221 | ncRNA array expression, patient 30: −1.4645

SEQ ID NO 76 (TGTTTCTAATGCATACTGTGAAAGGAAAAAAAATCACAGTTATCCACCTTCTCAGGGCCT; listed as DNA, chemistry not given here; listed as Homo sapiens)
ncRNA array expression, patient 2: −1.682 | ncRNA array expression, patient 3: −1.051 | ncRNA array expression, patient 4: −1.297 | ncRNA array expression, patient 5: −1.036 | ncRNA array expression, patient 6: 0.3953 | ncRNA array expression, patient 7: −1.741 | ncRNA array expression, patient 8: −1.681 | ncRNA array expression, patient 9: −1.284 | ncRNA array expression, patient 10: −0.6169 | ncRNA array expression, patient 19: −0.775 | ncRNA array expression, patient 20: −1.184 | ncRNA array expression, patient 21: −1.216 | ncRNA array expression, patient 22: −0.05441 | ncRNA array expression, patient 23: 0.7328 | ncRNA array expression, patient 24: −1.262 | ncRNA array expression, patient 25: −1.549 | ncRNA array expression, patient 26: −1.597 | ncRNA array expression, patient 27: −1.555 | ncRNA array expression, patient 28: −1.598 | ncRNA array expression, patient 29: −1.765 | ncRNA array expression, patient 30: 0.4068

SEQ ID NO 77 (AAGTTTCCACGGCAGGTTCTCGTAGCACCTTTGGTCAAGAACTGAAGGGGCCTTTAGATG; listed as DNA, chemistry not given here; listed as Homo sapiens)
ncRNA array expression, patient 2: −2.141 | ncRNA array expression, patient 3: −1.9159 | ncRNA array expression, patient 4: −2.042 | ncRNA array expression, patient 5: −1.549 | ncRNA array expression, patient 6: −0.8383 | ncRNA array expression, patient 7: −1.639 | ncRNA array expression, patient 8: −1.644 | ncRNA array expression, patient 9: −2.053 | ncRNA array expression, patient 10: −2.146 | ncRNA array expression, patient 19: −0.2581 | ncRNA array expression, patient 20: −1.526 | ncRNA array expression, patient 21: −1.23 | ncRNA array expression, patient 22: −0.5892 | ncRNA array expression, patient 23: 0.23 | ncRNA array expression, patient 24: −1.578 | ncRNA array expression, patient 25: −2.219 | ncRNA array expression, patient 26: −2.157 | ncRNA array expression, patient 27: −1.387 | ncRNA array expression, patient 28: −1.165 | ncRNA array expression, patient 29: −1.796 | ncRNA array expression, patient 30: 0.6447

SEQ ID NO 78 (ATGGAAAGGCCAGGGGAGGGTGGAGCTCAGGAGTGGAAGCACAGGGACTAAGGCCTGAGC; listed as DNA, chemistry not given here; listed as Homo sapiens)
ncRNA array expression, patient 2: −3.7 | ncRNA array expression, patient 3: −3.634 | ncRNA array expression, patient 4: −3.593 | ncRNA array expression, patient 5: −3.41 | ncRNA array expression, patient 6: −1.8308 | ncRNA array expression, patient 7: −3.861 | ncRNA array expression, patient 8: −3.607 | ncRNA array expression, patient 9: −3.9856 | ncRNA array expression, patient 10: −3.496 | ncRNA array expression, patient 19: −2.807 | ncRNA array expression, patient 20: −3.82 | ncRNA array expression, patient 21: −3.781 | ncRNA array expression, patient 22: −1.089 | ncRNA array expression, patient 23: −1.0414 | ncRNA array expression, patient 24: −3.419 | ncRNA array expression, patient 25: −3.518 | ncRNA array expression, patient 26: −3.351 | ncRNA array expression, patient 27: −3.653 | ncRNA array expression, patient 28: −3.215 | ncRNA array expression, patient 29: −3.656 | ncRNA array expression, patient 30: 1.597
